Source: US9174997B2, “4-(4-cyano-2-thioaryl)dihydropyrimidinones and use thereof” (Bayer Intellectual Property GmbH, priority 2007, dated 2015)

Target: human neutrophil elastase (HNE) (Homo sapiens (Human), UniProt P08246)
Assay: In vitro HNE inhibition assay
Assay type: biochemical
Conditions: HNE concentration of 80 pM; substrate MeOSuc-Ala-Ala-Pro-Val-AMC; 37° C. for 2 hours
Procedure: B-1. In Vitro HNE Inhibition Assay
The potency of the compounds of the invention is ascertained in an in vitro inhibition assay. The HNE-mediated amidolytic cleavage of a suitable peptide substrate leads in this connection to an increase in the fluorescent light. The signal intensity of the fluorescent light is directly proportional to the enzyme activity.
Enzyme ([…]; from Serva, Heidelberg) and substrate (20 μM MeOSuc-Ala-Ala-Pro-Val-AMC; from Bachem, Weil am Rhein) are incubated in an assay volume of in total 50 μl of assay buffer (0.1 M HEPES pH 7.4, 0.5 M NaCl, 0.1% w/v BSA, 1% v/v DMSO) in a 384-well microtiter plate in the presence and absence of the test substance at 37° C. for 2 hours. […] The IC50 values are determined by plotting the intensity of the fluorescent light against the active substance concentration.

Chain of human neutrophil elastase (HNE) (P08246 30-267): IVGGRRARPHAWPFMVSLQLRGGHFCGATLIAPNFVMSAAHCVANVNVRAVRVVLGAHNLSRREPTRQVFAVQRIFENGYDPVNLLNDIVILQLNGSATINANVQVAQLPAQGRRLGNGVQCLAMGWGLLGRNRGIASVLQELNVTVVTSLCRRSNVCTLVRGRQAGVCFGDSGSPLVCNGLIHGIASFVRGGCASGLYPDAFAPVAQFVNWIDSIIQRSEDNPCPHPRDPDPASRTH

SMILES	IC50
CC1=C(C#N)C(c2ccc(C#N)cc2S(=O)(=O)CCO)NC(=O)N1c1cccc(C(F)(F)F)c1 (racemic) [Example 132, (rac)-4-[4-Cyano-2-((2-hydroxyethyl)sulfonyl)phenyl]-6-methyl-2-oxo-1-[3-(trifluoromethyl)phenyl]-1,2,3,4-tetrahydropyrimidine-5-carbonitrile]	1.1 nM
CC1=C(C#N)[C@@H](c2ccc(C#N)cc2S(C)(=O)=O)N(C(=O)OCc2ccccc2)C(=O)N1c1cccc(C(F)(F)F)c1 (stereo in doubt) [Example 120, Benzyl 5-cyano-6-[4-cyano-2-(methylsulfonyl)phenyl]-4-methyl-2-oxo-3-[3-(trifluoromethyl)phenyl]-3,6-dihydropyrimidine-1(2H)-carboxylate]	< 0.3 nM
CC(=O)C1=C(C)N(c2cccc(C(F)(F)F)c2)C(=O)N[C@@H]1c1ccc(C#N)cc1S(C)(=O)=O [Example 2, 4-{(4S)-5-Acetyl-6-methyl-2-oxo-1-[3-(trifluoromethyl)phenyl]-1,2,3,4-tetrahydropyrimidin-4-yl}-3-(methylsulfonyl)benzonitrile]	10 nM
CC1=C(C#N)[C@@H](c2ccc(C#N)cc2S(C)(=O)=O)N(C(=O)NCCOCCO)C(=O)N1c1cccc(C(F)(F)F)c1 [Example 14, (6S)-5-Cyano-6-[4-cyano-2-(methylsulfonyl)phenyl]-N-[2-(2-hydroxyethoxy)ethyl]-4-methyl-2-oxo-3-[3-(trifluoromethyl)phenyl]-3,6-dihydropyrimidine-1(2H)-carboxamide]	< 0.3 nM
CC1=C(C#N)[C@@H](c2ccc(C#N)cc2S(C)(=O)=O)N(C(=O)N2CC[C@H](O)C2)C(=O)N1c1cccc(C(F)(F)F)c1 [Example 18, (4S)-4-[4-Cyano-2-(methylsulfonyl)phenyl]-3-{[(3S)-3-hydroxypyrrolidin-1-yl]carbonyl}-6-methyl-2-oxo-1-[3-(trifluoromethyl)phenyl]-1,2,3,4-tetrahydropyrimidine-5-carbonitrile]	< 0.3 nM
CC1=C(C#N)[C@@H](c2ccc(C#N)cc2S(C)(=O)=O)N(C(=O)N2CCN(CCO)CC2)C(=O)N1c1cccc(C(F)(F)F)c1 [Example 20, (4S)-4-[4-Cyano-2-(methylsulfonyl)phenyl]-3-{[4-(2-hydroxyethyl)piperazin-1-yl]carbonyl}-6-methyl-2-oxo-1-[3-(trifluoromethyl)phenyl]-1,2,3,4-tetrahydropyrimidine-5-carbonitrile]	1.9 nM
CSc1cc(C#N)ccc1[C@H]1NC(=O)N(c2cccc(C(F)(F)F)c2)C(C)=C1C#N [Example 41, (4S)-4-[4-Cyano-2-(methylsulfanyl)phenyl]-6-methyl-2-oxo-1-[3-(trifluoromethyl)phenyl]-1,2,3,4-tetrahydropyrimidine-5-carbonitrile]	< 0.3 nM

Test system: rat hepatocytes
Assay: Hepatocyte assay to determine the metabolic stability
Assay type: in vitro ADME
Conditions: after incubation with rat hepatocytes
Procedure: B-6. Hepatocyte Assay to Determine the Metabolic Stability
The metabolic stability of test compounds in the presence of hepatocytes is determined by incubating the compounds with low concentrations (preferably below or around 1 μM) and with low cell counts (preferably 1*10^6 cells/ml) in order to ensure as far as possible linear kinetic conditions in the experiment. Seven samples of the incubation solution are taken in a fixed time pattern for the […] analysis in order to determine the half-life (i.e. the degradation) of the compound in each case. Various clearance parameters (CL) and Fmax values are calculated from this half-life (see below).
The Cl and Fmax values represent a measure of the phase 1 and phase 2 metabolism of the compounds in the hepatocytes. In order to minimize the influence of the organic solvent on the enzymes in the incubation mixtures, this concentration is generally limited to 1% (acetonitrile) or 0.1% (DMSO).
A cell count for hepatocytes in the liver of 1.1*10^8 cells/g of liver is used for calculation for all species and breeds.
The calculated parameters and their meaning are:
Representative values for the compounds according to the invention from this assay after incubation of the compounds with rat hepatocytes are shown in Table B below: […]

SMILES	CLblood, calculated blood clearance (well stirred model)	Fmax, maximum possible bioavailability after oral administration (well-stirred)
CN1CC2=C(C1=O)C(c1ccc(C#N)cc1S(C)(=O)=O)N(C(=O)NCCO)C(=O)N2c1cccc(C(F)(F)F)c1 (racemic) [Example 38, (rac)-4-[4-Cyano-2-(methylsulfonyl)phenyl]-N-(2-hydroxyethyl)-6-methyl-2,5-dioxo-1-[3-(trifluoromethyl)phenyl]-1,2,4,5,6,7-hexahydro-3H-pyrrolo[3,4-d]pyrimidine-3-carboxamide]	3.3 mL/min/kg	96%
CC1=C(C(N)=O)[C@@H](c2ccc(C#N)cc2S(C)(=O)=O)NC(=O)N1c1cccc(C(F)(F)F)c1 [Example 5, (4S)-4-[4-Cyano-2-(methylsulfonyl)phenyl]-6-methyl-2-oxo-1-[3-(trifluoromethyl)phenyl]-1,2,3,4-tetrahydropyrimidine-5-carboxamide]	0 mL/min/kg	100%
CC1=C(C#N)[C@@H](c2ccc(C#N)cc2S(C)(=O)=O)NC(=O)N1c1cccc(C(F)(F)F)c1 [Example 6, (4S)-4-[4-Cyano-2-(methylsulfonyl)phenyl]-6-methyl-2-oxo-1-[3-(trifluoromethyl)phenyl]-1,2,3,4-tetrahydropyrimidine-5-carbonitrile]	3.3 mL/min/kg	96%
CC1=C(C#N)[C@@H](c2ccc(C#N)cc2S(C)(=O)=O)N(CC(=O)N2CCNC(=O)C2)C(=O)N1c1cccc(C(F)(F)F)c1 [Example 25, (4S)-4-[4-Cyano-2-(methylsulfonyl)phenyl]-6-methyl-2-oxo-3-[2-oxo-2-(3-oxopiperazin-1-yl)ethyl]-1-[3-(trifluoromethyl)phenyl]-1,2,3,4-tetrahydropyrimidine-5-carbonitrile]	5 mL/min/kg	93%
CC1=C(C#N)[C@@H](c2ccc(C#N)cc2S(C)(=O)=O)N(S(=O)(=O)c2ccccc2OC(F)(F)F)C(=O)N1c1cccc(C(F)(F)F)c1 [Example 29, (4S)-4-[4-Cyano-2-(methylsulfonyl)phenyl]-6-methyl-3-{[2-(trifluoromethoxy)phenyl]sulfonyl}-2-oxo-1-[3-(trifluoromethyl)phenyl]-1,2,3,4-tetrahydropyrimidine-5-carbonitrile]	6.7 mL/min/kg	90%
CCS(=O)(=O)N1C(=O)N(c2cccc(C(F)(F)F)c2)C(C)=C(C#N)[C@H]1c1ccc(C#N)cc1S(C)(=O)=O [Example 31, (4S)-4-[4-Cyano-2-(methylsulfonyl)phenyl]-6-methyl-3-(ethylsulfonyl)-2-oxo-1-[3-(trifluoromethyl)phenyl]-1,2,3,4-tetrahydropyrimidine-5-carbonitrile]	6.7 mL/min/kg	91%
CC1=C(C#N)[C@@H](c2ccc(C#N)cc2S(C)(=O)=O)N(C)C(=O)N1c1cccc(C(F)(F)F)c1 [Example 33, (4S)-4-[4-Cyano-2-(methylsulfonyl)phenyl]-3,6-dimethyl-2-oxo-1-[3-(trifluoromethyl)phenyl]-1,2,3,4-tetrahydropyrimidine-5-carbonitrile]	10 mL/min/kg	87%
CC1=C(C#N)[C@@H](c2ccc(C#N)cc2S(C)(=O)=O)N(S(=O)(=O)c2cn(C)c(C)n2)C(=O)N1c1cccc(C(F)(F)F)c1 [Example 92]	12 mL/min/kg	83%
CC1=C(C#N)[C@@H](c2ccc(C#N)cc2S(C)(=O)=O)N(c2ccc(C#N)cc2)C(=O)N1c1cccc(C(F)(F)F)c1 [Example 117, (4S)-4-[4-Cyano-2-(methylsulfonyl)phenyl]-3-(4-cyanophenyl)-6-methyl-2-oxo-1-[3-(trifluoromethyl)phenyl]-1,2,3,4-tetrahydropyrimidine-5-carbonitrile]	1.7 mL/min/kg	97%
CC1=C(C#N)[C@@H](c2ccc(C#N)cc2S(C)(=O)=O)N(c2cccc(C(F)(F)F)c2)C(=O)N1c1cccc(C(F)(F)F)c1 [Example 118, (4S)-4-[4-Cyano-2-(methylsulfonyl)phenyl]-6-methyl-2-oxo-1,3-bis[3-(trifluoromethyl)phenyl]-1,2,3,4-tetrahydropyrimidine-5-carbonitrile]	10 mL/min/kg	86%
CN1CC2=C(C1=O)[C@@H](c1ccc(C#N)cc1S(C)(=O)=O)N(C)C(=O)N2c1cccc(C(F)(F)F)c1 [Example 123, 4-(4S)-3,6-Dimethyl-2,5-dioxo-1-[3-(trifluoromethyl)phenyl]-2,3,4,5,6,7-hexahydro-1 H-pyrrolo[3,4-d]pyrimidin-4-yl-3-(methylsulfonyl)benzonitrile]	16.7 mL/min/kg	75%
CCS(=O)(=O)c1cc(C#N)ccc1[C@H]1NC(=O)N(c2cccc(C(F)(F)F)c2)C(C)=C1C#N [Example 127, (4S)-4-[4-Cyano-2-(ethylsulfonyl)phenyl]-6-methyl-2-oxo-1-[3-(trifluoromethyl)phenyl]-1,2,3,4-tetrahydropyrimidine-5-carbonitrile]	3.3 mL/min/kg	94%
CCS(=O)(=O)c1cc(C#N)ccc1[C@@H]1C(C#N)=C(C)N(c2cccc(C(F)(F)F)c2)C(=O)N1S(C)(=O)=O [Example 129, (4S)-4-[4-Cyano-2-(ethylsulfonyl)phenyl]-6-methyl-3-(methylsulfonyl)-2-oxo-1-[3-(trifluoromethyl)phenyl]-1,2,3,4-tetrahydropyrimidine-5-carbonitrile]	15 mL/min/kg	79%
